Assay results: US8283310B2, “Hepatitis C virus inhibitors” (priority 2008, dated 2012)

Experiments:
[1] = system: HCV strain 1b replicon in HUH-7 cells; experiment: HCV replicon luciferase reporter assay, genotype 1b; assay type: cell-based; conditions: Hepatitis C virus, Huh-7, 72 h, read-out: 1a/1b EC50 (nM): 1b
Text: An HCV replicon whole cell system was established as described by Lohmann V, Korner F, Koch J, Herian U, Theilmann L, Bartenschlager R., Science 285(5424):110-3 (1999). This system enabled us to evaluate the effects of our HCV Protease compounds on HCV RNA replication. Briefly, using the HCV strain 1b sequence described in the Lohmann paper (Assession number: AJ238799), an HCV cDNA was synthesized by Operon Technologies, Inc. (Alameda, Calif.), and the full-length replicon was then assembled in plasmid pGem9zf(+) (Promega, Madison, Wis.) using standard molecular biology techniques. […]
(§1) The HCV replicon luciferase assay was developed to monitor the inhibitory effects of compounds described in the disclosure on HCV viral replication. […] After 3 days incubation at 37° C., cells were analyzed for Renilla Luciferase activity using the EnduRen as substrate (Promega cat 4E6485). […] The plates were incubated for 2 hrs at 37° C. and then read immediately for 30 seconds on the Viewlux Imager (PerkinElmer) using a luminescence program. […] The fluorescence signal from each well was read, with an excitation wavelength at 525/10 nm and an emission wavelength of 598/10 nm, on the Viewlux Imager.
(§2) The percentage inhibition was calculated using the formula below:
(§3) [formula] The values were graphed and analyzed using XLfit to obtain the EC50 value.

[2] = molecular target: T1, HCV NS3/4A protease complex (Hepatitis C virus genotype 1a, UniProt P27958, C1454S/C1711G); experiment: FRET peptide assay to monitor HCV NS3/4A proteolytic activity; assay type: biochemical; conditions: recombinant NS3/4A protease complex, RET S1 FRET peptide substrate; strain not given
T1 construct: DNA encoding the recombinant HCV NS3/4A protease complex (amino acids 1027 to 1711) for these strains; inferred from pET21b vector and Ni-NTA purification; made in house; host or cells: Escherichia coli BL21 (DE3), pET21b
Text: HCV NS3 protease complexes, derived from the BMS strain, H77 strain or J4L65 strain, were generated, as described below. These purified recombinant proteins were generated for use in a homogeneous assay (see below) to provide an indication of how effective compounds of the present disclosure would be in inhibiting HCV NS3 proteolytic activity.
The H77 and J4L6S strains were used for production of recombinant NS3/4A protease complexes. DNA encoding the recombinant HCV NS3/4A protease complex (amino acids 1027 to 1711) for these strains was manipulated as described by P. Gallinari et al. (see Gallinari P, Paolini C, Brennan D, Nardi C, Steinkuhler C, De Francesco R. Biochemistry. 38(17):5620-32, (1999)). Briefly, a three-lysine solubilizing tail was added at the 3′-end of the NS4A coding region. The cysteine in the P1 position of the NS4A-NS4B cleavage site (amino acid 1711) was changed to a glycine to avoid the proteolytic cleavage of the lysine tag. Furthermore, a cysteine to serine mutation was introduced by PCR at amino acid position 1454 to prevent the autolytic cleavage in the NS3 helicase domain. […]

[3] = system: HCV genotype 1a replicon (H77) in HUH-7 cells; experiment: HCV replicon luciferase reporter assay, genotype 1a; assay type: cell-based; conditions: Hepatitis C virus, Huh-7, 72 h, read-out: 1a/1b EC50 (nM): 1a
Text: A stable HCV genotype 1a replicon cell line was generated with a similar genomic map as described above for the 1b replicon cell line. An additional adaptive substitution at position 1496 (proline to leucine) was also introduced (Lemm J A, Liu M, Rose R E, Fridell R, O′Boyle Ii D R, Colonno R, Gao M. Intervirology. 2005 48(2-3):183-91). The sequence of the H77 infectious clone (see above for details) was used to generate the sub-replicon which also contained the selectable marker G418 and the Renilla luciferase gene.
as §1, §2, §3

T1 sequence (P27958 1027-1711 C1454S/C1711G, one chain of several): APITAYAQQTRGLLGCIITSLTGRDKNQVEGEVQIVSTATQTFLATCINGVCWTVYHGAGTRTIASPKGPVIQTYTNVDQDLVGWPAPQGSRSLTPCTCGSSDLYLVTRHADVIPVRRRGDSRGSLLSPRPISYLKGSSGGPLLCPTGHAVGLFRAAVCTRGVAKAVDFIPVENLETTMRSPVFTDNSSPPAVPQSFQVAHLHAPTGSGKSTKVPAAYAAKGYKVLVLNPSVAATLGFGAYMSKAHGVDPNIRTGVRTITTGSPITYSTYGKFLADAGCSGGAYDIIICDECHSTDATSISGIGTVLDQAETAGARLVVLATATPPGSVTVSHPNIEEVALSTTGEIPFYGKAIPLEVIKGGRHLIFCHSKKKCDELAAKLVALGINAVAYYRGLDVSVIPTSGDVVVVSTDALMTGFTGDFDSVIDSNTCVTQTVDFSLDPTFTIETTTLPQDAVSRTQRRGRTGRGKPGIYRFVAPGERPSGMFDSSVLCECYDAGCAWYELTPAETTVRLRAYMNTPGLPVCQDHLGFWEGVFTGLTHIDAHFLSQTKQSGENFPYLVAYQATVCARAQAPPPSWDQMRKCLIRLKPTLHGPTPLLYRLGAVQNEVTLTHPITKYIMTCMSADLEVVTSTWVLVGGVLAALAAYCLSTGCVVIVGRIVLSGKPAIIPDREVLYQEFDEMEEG

Row | SMILES | EC50 [1] | IC50 [2] | EC50 [3]
1 | CC(C)(C)OC(=O)N[C@H](C(=O)N1C[C@]2(c3ccc(-c4ccccc4)cc3)C[C@H]1C(=O)N[C@@]1(C[C@H]1C(F)F)C(=O)NS(=O)(=O)C1(CCCCC/C=C/CS2)CC1)C(C)(C)C [Compound 1] | 21 nM | 2 nM | 49 nM
2 | CC(C)(C)OC(=O)N[C@H](C(=O)N1C[C@]2(c3ccc(-c4ccccc4)cc3)C[C@H]1C(=O)N[C@@]1(C[C@H]1C(F)F)C(=O)NS(=O)(=O)C1(CCCCC/C=C\CS2)CC1)C(C)(C)C [Compound 2] | 33 nM | 4 nM | 95 nM
